Experimental data published in US10253052B2, “HBED-bisphosphonates, radiometal conjugates and their use as theranostic agents” (Five Eleven Pharma Inc., priority 2015, dated 2019).
Several values for one entry are separate records, joined by “and”; a condition that tells them apart may be missing. Equal values may be shown once. Marks after values point to notes of the source that are not given here.

Assays:
[1] = In vivo biodistribution in mice; set-up: species or system normal CD-1 male mice; conditions: for bone to blood ratio / bone to muscle ratio / Biodistribution: Blood / Biodistribution: Bone / Biodistribution: Brain / Biodistribution: Heart / Biodistribution: Kidney / Biodistribution: Liver / Biodistribution: Lung / Biodistribution: Muscle / Biodistribution: Pancreas / Biodistribution: Skin / Biodistribution: Spleen: iv
In short: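 Normal male CD-1 mice (25-30 g) received 20-30 μCi of ^68Ga-labelled tracer or [^18F]NaF intravenously and were sacrificed at 2, 30, 60 and 120 min. Harvested organs, with tibia and femur as bone, were weighed and gamma-counted; uptake is expressed as % ID/g wet tissue.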

[2] = In vitro binding to hydroxyapatite; conditions: 20 mg hydroxyapatite in saline, 10 min at room temperature
In short: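 Hydroxyapatite was pre-incubated 24 h in isotonic saline, then ^68Ga-labelled compound (1 μCi) was added and incubated 10 min at room temperature. After centrifugation and two saline washes, gamma counting of supernatants and solid gave percent ^68Ga bound to hydroxyapatite.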

bone to blood ratio ([1]; 30 min): 24
bone to muscle ratio ([1]; 30 min): 41
Biodistribution: Blood ([1]; 30 min (0.5 hr) post injection): 0.54 ± 0.11 % dose/g
Biodistribution: Bone ([1]; 30 min (0.5 hr) post injection): 12.4 ± 1.19 % dose/g
Biodistribution: Brain ([1]; 30 min (0.5 hr) post injection): 0.03 ± 0.01 % dose/g
Biodistribution: Heart ([1]; 30 min (0.5 hr) post injection): 0.23 ± 0.05 % dose/g
Biodistribution: Kidney ([1]; 30 min (0.5 hr) post injection): 1.21 ± 0.94 % dose/g
Biodistribution: Liver ([1]; 30 min (0.5 hr) post injection): 0.20 ± 0.03 % dose/g
Biodistribution: Lung ([1]; 30 min (0.5 hr) post injection): 1.35 ± 1.52 % dose/g
Biodistribution: Muscle ([1]; 30 min (0.5 hr) post injection): 0.39 ± 0.24 % dose/g
Biodistribution: Pancreas ([1]; 30 min (0.5 hr) post injection): 0.15 ± 0.03 % dose/g
Biodistribution: Skin ([1]; 30 min (0.5 hr) post injection): 0.41 ± 0.12 % dose/g
Biodistribution: Spleen ([1]; 30 min (0.5 hr) post injection): 0.15 ± 0.04 % dose/g
bone to blood ratio ([1]; 60 min): 97
bone to muscle ratio ([1]; 60 min): 200
Biodistribution: Blood ([1]; 60 min (1 hr) post injection): 0.12 ± 0.02 % dose/g
Biodistribution: Brain ([1]; 60 min (1 hr) post injection): 0.01 ± 0.00 % dose/g
Biodistribution: Heart ([1]; 60 min (1 hr) post injection): 0.08 ± 0.02 % dose/g
Biodistribution: Kidney ([1]; 60 min (1 hr) post injection): 1.48 ± 0.60 % dose/g
Biodistribution: Liver ([1]; 60 min (1 hr) post injection): 0.13 ± 0.03 % dose/g
Biodistribution: Lung ([1]; 60 min (1 hr) post injection): 0.20 ± 0.05 % dose/g
Biodistribution: Muscle ([1]; 60 min (1 hr) post injection): 0.06 ± 0.01 % dose/g
Biodistribution: Pancreas ([1]; 60 min (1 hr) post injection): 0.07 ± 0.02 % dose/g
Biodistribution: Skin ([1]; 60 min (1 hr) post injection): 0.11 ± 0.03 % dose/g
Biodistribution: Spleen ([1]; 60 min (1 hr) post injection): 0.07 ± 0.01 % dose/g
Biodistribution: Blood ([1]; 6 hr post injection): 0.016 ± 0.007 % dose/g
Biodistribution: Bone ([1]; 6 hr post injection): 12.7 ± 0.90 % dose/g
Biodistribution: Brain ([1]; 6 hr post injection): 0.003 ± 0.003 % dose/g
Biodistribution: Heart ([1]; 6 hr post injection): 0.024 ± 0.005 % dose/g
Biodistribution: Kidney ([1]; 6 hr post injection): 0.686 ± 0.191 % dose/g
Biodistribution: Liver ([1]; 6 hr post injection): 0.088 ± 0.021 % dose/g
Biodistribution: Lung ([1]; 6 hr post injection): 0.062 ± 0.006 % dose/g
Biodistribution: Muscle ([1]; 6 hr post injection): 0.031 ± 0.011 % dose/g
Biodistribution: Pancreas ([1]; 6 hr post injection): 0.021 ± 0.001 % dose/g
Biodistribution: Skin ([1]; 6 hr post injection): 0.052 ± 0.006 % dose/g
Biodistribution: Spleen ([1]; 6 hr post injection): 0.038 ± 0.005 % dose/g
bone to blood ratio ([1]; 6 hr post-injection): 909^a
bone to muscle ratio ([1]; 6 hr post-injection): 454^a
Biodistribution: Blood ([1]; 24 hr post injection): 0.003 ± 0.001 % dose/g
Biodistribution: Bone ([1]; 24 hr post injection): 11.6 ± 1.14 % dose/g
Biodistribution: Brain ([1]; 24 hr post injection): 0.014 ± 0.016 % dose/g
Biodistribution: Heart ([1]; 24 hr post injection): 0.014 ± 0.003 % dose/g
Biodistribution: Kidney ([1]; 24 hr post injection): 0.411 ± 0.125 % dose/g
Biodistribution: Liver ([1]; 24 hr post injection): 0.068 ± 0.013 % dose/g
Biodistribution: Lung ([1]; 24 hr post injection): 0.040 ± 0.003 % dose/g
Biodistribution: Muscle ([1]; 24 hr post injection): 0.021 ± 0.005 % dose/g
Biodistribution: Pancreas ([1]; 24 hr post injection): 0.013 ± 0.005 % dose/g
Biodistribution: Skin ([1]; 24 hr post injection): 0.042 ± 0.008 % dose/g
Biodistribution: Spleen ([1]; 24 hr post injection): 0.034 ± 0.005 % dose/g
bone to blood ratio ([1]; 24 hr post-injection): 4312^b^
bone to muscle ratio ([1]; 24 hr post-injection): 572^b
Hydroxyapatite Binding (%) [2]: 90.9 ± 1.1%
Structure (SMILES): O=C([O-])CN1CCN(CC(=O)[O-])CCN(CC(=O)NCCNC(=O)CCc2ccc(O)c(CN(CCN(CC(=O)O)Cc3cc(CCC(=O)NC(P(=O)(O)O)P(=O)(O)O)ccc3O)CC(=O)O)c2)CCN(CC(=O)[O-])CC1.[177Lu+3] [[^177Lu]1h]
Biodistribution: Bone ([1]; 60 min (1 hr) post injection): 11.4±0.3 % dose/g and 11.4 ± 0.31 % dose/g
Biodistribution result in words (organ uptake, retention, excretion) ([1]; normal mice after iv injection): excellent bone uptake, retention in bone and fast kidney excretion
